Source: PubChem BioAssay AID651786 (The Scripps Research Institute Molecular Screening Center, 2012)
The source made the active and inactive calls.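 Rule for the calls: active = IC50 at or below 10 µM; inactive = IC50 above 10 µM.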

Target: Nuclear receptor coactivator 1 (Homo sapiens) (UniProt Q15788)
Assay: inhibition of GAL4-SRC1 reporter transcription – cell-based, HEK293, GAL4-SRC1 luciferase, powder samples, selectivity assay for SRC3 inhibitor project, late-stage follow-up (AID 651786)
Conditions: luminescence

Sequence of Nuclear receptor coactivator 1 (Homo sapiens) (Q15788 whole entry, looked up, the tested form may be a part): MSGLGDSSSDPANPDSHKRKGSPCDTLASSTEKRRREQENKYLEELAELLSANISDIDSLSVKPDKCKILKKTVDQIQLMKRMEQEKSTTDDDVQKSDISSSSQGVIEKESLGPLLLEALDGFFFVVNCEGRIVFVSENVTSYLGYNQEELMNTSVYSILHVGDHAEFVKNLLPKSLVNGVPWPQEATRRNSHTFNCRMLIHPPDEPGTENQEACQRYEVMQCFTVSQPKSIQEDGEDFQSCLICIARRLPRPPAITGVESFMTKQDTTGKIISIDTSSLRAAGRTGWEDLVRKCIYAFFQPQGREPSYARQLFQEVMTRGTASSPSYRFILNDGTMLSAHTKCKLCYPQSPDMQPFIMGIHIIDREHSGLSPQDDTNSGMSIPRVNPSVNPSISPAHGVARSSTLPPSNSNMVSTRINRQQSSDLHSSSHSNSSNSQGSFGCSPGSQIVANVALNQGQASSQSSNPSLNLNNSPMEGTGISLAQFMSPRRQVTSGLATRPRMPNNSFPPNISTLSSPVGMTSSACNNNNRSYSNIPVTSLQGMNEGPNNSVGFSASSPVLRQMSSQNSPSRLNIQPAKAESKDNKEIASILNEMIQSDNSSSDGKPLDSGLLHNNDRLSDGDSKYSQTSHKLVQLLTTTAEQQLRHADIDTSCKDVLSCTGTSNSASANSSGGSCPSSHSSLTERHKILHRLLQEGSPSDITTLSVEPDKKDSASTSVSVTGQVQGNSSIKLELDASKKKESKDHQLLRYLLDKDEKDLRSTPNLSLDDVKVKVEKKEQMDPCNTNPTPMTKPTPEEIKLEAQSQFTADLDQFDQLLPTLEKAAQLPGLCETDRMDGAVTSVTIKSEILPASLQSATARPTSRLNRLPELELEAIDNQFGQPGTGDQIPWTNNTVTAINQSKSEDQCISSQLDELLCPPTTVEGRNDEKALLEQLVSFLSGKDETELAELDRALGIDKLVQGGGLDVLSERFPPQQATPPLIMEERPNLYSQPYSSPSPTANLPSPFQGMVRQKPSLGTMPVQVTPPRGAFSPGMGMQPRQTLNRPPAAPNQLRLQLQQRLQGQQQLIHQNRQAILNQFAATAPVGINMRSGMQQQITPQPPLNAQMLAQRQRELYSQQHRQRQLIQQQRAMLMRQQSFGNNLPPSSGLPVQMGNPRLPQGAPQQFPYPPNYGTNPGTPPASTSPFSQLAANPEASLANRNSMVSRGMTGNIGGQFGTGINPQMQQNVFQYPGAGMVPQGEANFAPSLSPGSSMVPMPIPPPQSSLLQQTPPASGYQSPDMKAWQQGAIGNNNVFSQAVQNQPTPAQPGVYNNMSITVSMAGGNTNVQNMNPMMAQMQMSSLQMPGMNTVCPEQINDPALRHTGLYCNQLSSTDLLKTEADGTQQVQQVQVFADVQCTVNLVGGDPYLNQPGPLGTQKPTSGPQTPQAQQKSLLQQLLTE

Row | Structure (SMILES) | IC50
1 | CN1C(=O)C2(C(C#N)=C(N)N(c3cc(Cl)cc(Cl)c3)C3=C2C(=O)CCC3)c2ccccc21 (stereo not drawn) | > 35.9 µM (inactive)
2 | O=C(Nc1ccccc1Oc1ccccc1)c1cc([N+](=O)[O-])ccc1Cl | 6.87 µM
3 | CN1C(=O)C2(C(C#N)=C(N)N(c3cc(Cl)cc(Cl)c3)C3=C2C(=O)CC(C)(C)C3)c2ccccc21 (stereo not drawn) | > 35.9 µM (inactive)
4 | CCCNC(=O)c1nnsc1S(=O)(=O)c1ccc(Cl)cc1 | 6.16 µM
5 | Cc1ccc(OCC(=O)c2cc(C)n(-c3ccccc3)c2C)c([N+](=O)[O-])n1 | inactive

Further lines, results first:

Row | IC50 | Structure (SMILES)
6 | > 35.9 µM (inactive) | CC(C)(C)c1ccc(-c2noc(CCC(=O)Nc3cccnc3)n2)cc1
7 | 3.01 µM | OCCN1CCN(C(=S)c2ccc(-c3ccccc3)cc2)CC1
8 | > 35.9 µM (inactive) | O=C(COC(=O)c1ccc[nH]c1=O)Nc1ccc(N2CCCCC2)cc1
